In US8377478B2, “Solid detergent composition” (Innospec Limited, priority 2007, dated 2013):

Assays:
Type in all cases: physicochemical
[1] = Appearance of the materials observed periodically over 72 hours
Description: The appearance of each of the materials was observed periodically over 72 hours. The observations are recorded in table 2.

[2] = Increase in mass of the samples over time
Excerpt: Table 3 show how the samples increased in mass over time.

[3] = Solubility: EDDS content of a saturated solution in water; details: room temperature, stirred overnight, as free EDDS, ignoring counter ion
Description: The solubility of each sample was measured as follows: An excess of solid material was added to 5 ml of water and stirred overnight at room temperature. The solution was filtered and the filtrate analysed for EDDS content by HPLC. The solubility values given in table 4 refer to the amount of free EDDS or succinate ion present and ignore the mass of any associated counter ion.

| Structure (SMILES) | Appearance after 24 hr ([1]; after 24 hr) | Appearance after 48 hr [1] | Appearance after 72 hr [1] | Initial Appearance [1] | % increase in mass after 72 hr [2] | EDDS content of a saturated solution solubility [3] | Appearance after 24 hr ([1]; cell in the 24 hr column marked (2 hr)) |
| --- | --- | --- | --- | --- | --- | --- | --- |
| O=C([O-])CC(NCCNC(CC(=O)[O-])C(=O)[O-])C(=O)[O-].[Ca+2].[Ca+2] (centres unmarked) [F] | Slightly | Slightly | Slightly | Free flowing | 8.81% | 10100 mg/kg |  |
| O=C1CCC(=O)ON2CCN(O1)OC(=O)CCC(=O)O2.[Na].[Na].[Na] [Na3EDDS, trisodium ethylenediamine disuccinate] |  | Very Sticky | Very Sticky | Free flowing | 25% |  | Sticky Solid |
| O=C([O-])CC(NCCNC(CC(=O)[O-])C(=O)[O-])C(=O)[O-].[Mg+2].[Mg+2] (centres unmarked) [Example A] | Free flowing | Free flowing | Free flowing | Free flowing | 0.10% | 164300 mg/kg |  |
